Data from patent publication US12063929B2, “3′-alkynyl abscisic acid derivatives as ABA antagonists” (University of Saskatchewan, priority 2018, dated 2024).

Assays:
[1] = tested on: ABA-inducible promoter of the MKKK18 gene (GUS reporter); assay: ABA-inducible gene expression, MKKK18GUS reporter plants; assay type: in vivo, Arabidopsis; design: antagonist effect, GUS staining: dose or concentration left out as unconfirmed
Description: Transgenic MKKK18GUS Arabidopsis plants harbor an […] (GUS) reporter gene fused to an ABA-inducible promoter of the MKKK18 gene (Okamoto et al. 2013). Six-day-old MKKK18GUS plants were treated with ABA1019 alone or both ABA1019 and ABA for 6 hours. Plants were then stained with 5-bromo-4-chloro-3-indolyl-beta-D-glucuronic acid cyclohexyl ammonium salt (X-Glc) for 14 hours, and destained with 70% ethanol.

[2] = tested on: Soybean (AAC Edward; 2018); assay: Soybean germination assay; assay type: in vivo
Description: For each treatment 6 replicates of 10 seeds were plated into petri dishes lined with two filter papers and 10 mL of test solution. The covered dishes were stored at room temperature in the dark. Germinated seeds were counted over 24 hours. The following dosages were used when studying the effect of exemplary compounds of the application on soybean germination: control 1% DMSO. 10 μM ABA, 10 μM exemplary compound 1019, 100 um exemplary compound 1019, 10 μM exemplary compound 1019 plus 10 μM ABA and 100 uM exemplary compound 1019 plus 10 μM ABA.

[3] = tested on: wheat; assay: Wheat radical elongation assay; assay type: in vivo; details: 10 μM 1019 alone, 3.0 days post treatment (FIG. 11C)
Description: (§1) Seeds were surface sterilized by incubation in 10% bleach for 20 min with shaking, then rinsed four times with sterile water. Four ml of test solutions were pipetted into petri dishes (100×15 mm) that contain a single filter paper. Fifteen seeds were added to each dish. For rice, barely, and wheat, the experiment involved five treatments (5 μM ABA; 5 μM ABA+10 μM 1019; 10 μM 1019; water control; water+EtOH+NaOH control), with three replications per treatment. For sorghum, treatments were 10 μM ABA; 10 μM ABA+20 μM 1019; 20 μM 1019; water control; water+EtOH+NaOH control. Dishes were sealed with Parafilm, and incubated in the dark at room temperature. Radical length was measured daily post emergence using ImageJ software; shown are 3 days post treatment for barley, wheat and sorghum and 4.5 days post treatment for rice.

[4] = tested on: Hard Red Spring wheat; assay: Hard Red Spring wheat seedling growth (root and shoot length); assay type: in vivo
Description: For each treatment 3 replicates of 10 seeds were plated into petri dishes lined with two filter papers and 10 mL of test solution. The covered dishes were stored at room temperature in the dark. At 72 hours, germinated seeds were scored for root length and shoot length. The following dosages were used when studying the effect of the exemplary ABA analogues of the application on wheat shoot and root growth: control 1% DMSO. 10 μM ABA, 10 μM 1019, 100 μM exemplary compound 1019, 10 μM exemplary compound 1019 plus 10 μM ABA […] and 100 μM exemplary compound 1019 plus 10 μM ABA […].

[5] = tested on: Canary seed (CDC Bastia; 2018); assay: Canary seed germination assay; assay type: in vivo
[6] = tested on: rice; assay: Rice radical elongation assay; assay type: in vivo; details: 10 μM 1019 alone, 4.5 days post treatment (FIG. 11A)
Description: as §1

[7] = tested on: Botrytis cinerea; assay: Pathogenicity test on detached Arabidopsis thaliana leaves; assay type: in vivo
[8] = tested on: wild and RIL lentil genotypes; assay: Seed germination in wild and RIL populations of lentil genotypes; assay type: in vivo, lentil (L. orientalis, L. nigricans and others)
Excerpt: Fifty four lentil genotypes were selected for the experiment based on the existing data on the number of days it takes them to emerge and days to flowering. The seeds of each genotype were scarified before sowing and subjected to 3 treatments. VWR 415 9 cm filter papers were placed inside VWR 100 mm plastic petri dishes. Each petri dish was labeled on both the top and the bottom. Ten seed from each line was place in a labelled petri dish. Each lentil or faba bean genotype was replicated 3 times and subjected to 3 treatments (total number of experimental petri dishes=531). Thus: • 1. ABA exemplary compound solution [10 μM exemplary ABA analog compound 1019 in 1% DMSO, 99% H2O (LL10.1014.1) NaSaH (SL-1-16-1-53)] • 2. No exemplary ABA analogue solution (1% DMSO, 99% H2O) • 3. Distilled water—control
Seven milliliters of either exemplary ABA analogue solution, solution with no exemplary ABA analogue or distill water (control) was added into the corresponding labelled petri dishes containing the 10 scarified lentil seeds. For faba, bean, 10 ml because of their large seed size. The petri dishes were placed in a dark cupboard. Two digital temperature and humidity loggers (Tinytag) were placed inside the cupboards to monitor environmental conditions.
Germination was considered for a seed when a tiny radicle at least 5 mm or greater had emerged from the seed. The number of seeds that germinated was counted and recorded at 48 and 96 hours; and at 7 days. Some of the genotypes of interest were photographed (AF-S Micro NIKKOR 60 mm 1:2.8G camera) for comparison purpose. However, an excel sheet showing all results is available. At 48 hours, a total of 22 genotypes and their replicates were selected from the petri dishes treated with exemplary compound and distilled water were transplanted into pots (for faba bean) and trays (for lentils) in order to assess the length of time they took to flower while the rest of the petri dishes were kept till the end of the experiment that lasted a week.
The average temperature in the cupboards was 22.5° C. (±0.3) while the relative humidity ranged from 52.4 to 80.7 percent for the duration of the experiment. Studies carried out by Linda Gorim and Devini De. Silva, University of Saskatchewan

## CC1=C(C#Cc2ccccc2)C(=O)CC(C)(C)[C@@]1(O)/C=C/C(C)=C\C(=O)O [Compound 1019, (2Z,4E)-5-((S)-1-Hydroxy-2,6,6-trimethyl-4-oxo-3-(phenylethynyl)cyclohex-2-en-1-yl)-3-methylpenta-2,4-dienoic acid]
[1]; 2.5 μM applied alone, 6 hours
  agonist activity, GUS staining: weak agonist activity
[1]; 1:1 ratio with ABA
  GUS staining compared to ABA alone: a reduction in the GUS staining
[1]; co-applied with ABA, dose dependent
  antagonist effect, GUS staining: potent antagonist effect
[1]; ratio of compound to ABA 10:1
  GUS staining compared to ABA alone: abolition of the ABA GUS stain
[2]; 10 and 100 μM compound in the presence of 10 μM ABA
  soybean seed germination: overcame the inhibition
[2]; compound alone at 10 or 100 μM
  soybean seed germination: did not affect
[3]
  radical length (Least Square mean); radical elongation: 2.386
[4]; 10 μM compound plus 10 μM ABA, 72 h (FIG. 9A)
  root growth: restored root growth to close to control length
[4]; 100 μM compound alone, 72 h
  root growth: not affected
  shoot growth: not inhibited
[4]; 100 μM compound plus 10 μM ABA, 72 h (FIG. 9A)
  root growth: restored root growth to close to control length
[4]; compound plus 10 μM ABA, 72 h (FIG. 9B)
  shoot growth: restored
[5]; 10 μM compound plus 10 μM ABA, day 4
  canary seed germination: did not
[5]; 100 μM compound plus 10 μM ABA, day 4
  canary seed germination: overcame inhibition
[5]; compound alone, 10 μM or 100 μM
  canary seed germination: Neither concentration of exemplary compound 1019 affected germination
[6]
  radical length (Least Square mean); radical elongation: 1.036
[7]; 100 μM spray, 24 hours post inoculation (FIG. 14)
  disease lesions: smaller lesions
[7]; 100 μM spray, preliminary results
  disease development caused by B. cinerea: partially inhibits
[7]; plants sprayed with 100 μM, versus mock control
  symptom development: slower
[8]; L. nigricans IG-72551 seeds, at 2 days, 10 μM compound
  germination: 100%
[8]; L. orientalis IG72770, day 2, 10 μM compound
  germination: 40%
[8]; L. orientalis IG72770, day 3, 10 μM compound
  germination: 75%
[8]; L. orientalis IG72770, day 4, 10 μM compound
  germination: 100%
[8]; all genotypes that responded, 10 μM compound
  germination uniformity between replicates: eliminated the variable germination rates
[8]; lentil, transplanted at 48 hours, 10 μM compound
  days to flowering: nor did it significantly affect
[8]; of 54 lentil genotypes screened, over 4 days, 10 μM compound
  number of lentil genotypes that responded positively (improved germination rate): 18
